From US6841552B1, “3a,4,5,9b-tetrahydro-1H-benz[e]indol-2-yl amine-derived neuropeptide Y receptors ligands useful in the treatment of obesity and other disorders” (Ortho-McNeil Pharmaceutical, Inc., priority 1999, dated 2005)

Key:
[1] = biological target: T1, human neuropeptide Y5 receptor (Homo sapiens, UniProt Q15761); experiment: NPY5 HTS centrifugation assay: competition with 125I-PYY for binding to membranes of NPY5-transfected HEK293 cells; conditions: for % Inh @ 300 nM / inhibition at 0.3 µM: % inhibition of 125I-PYY binding at 300 nM compound; for % Inh @ 3 uM / inhibition at 3 µM: % inhibition of 125I-PYY binding at 3 uM compound; for inhibition at 0.3 µM: read-out: % Inh @ 300 nM
T1 construct: expressed in transfected cells; membranes
T1 sequence (Q15761 1-445): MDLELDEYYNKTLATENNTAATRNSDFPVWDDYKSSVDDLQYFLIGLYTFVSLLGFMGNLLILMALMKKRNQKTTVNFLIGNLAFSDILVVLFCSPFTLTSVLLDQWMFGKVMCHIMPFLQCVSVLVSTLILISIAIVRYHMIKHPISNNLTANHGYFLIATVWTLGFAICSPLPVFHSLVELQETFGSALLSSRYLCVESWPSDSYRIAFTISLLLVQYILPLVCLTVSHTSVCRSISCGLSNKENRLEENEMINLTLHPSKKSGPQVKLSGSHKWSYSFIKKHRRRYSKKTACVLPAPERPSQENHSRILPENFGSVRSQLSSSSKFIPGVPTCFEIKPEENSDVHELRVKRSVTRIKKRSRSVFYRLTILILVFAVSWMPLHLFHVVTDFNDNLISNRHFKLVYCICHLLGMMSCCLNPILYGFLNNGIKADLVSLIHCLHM
Method: NPY5 HTS Centrifugation Assay
The compounds described in this invention were evaluated for binding to the human neuropeptide Y5 receptor.
The human NPY5 receptor cDNA (Genbank Accession number U66275) was inserted into the vector pClneo (Invitrogen) and transfected into human embryonic kidney cells (HEK-293) via calcium phosphate method (Cullen 1987). Stably transfected cells were selected with G-418 (600 μg/mL). Stably transfected cells served as the source for the membranes for the NPY5 receptor binding assay.
NPY5-transfected HEK293 cells were grown to confluence in 150 cm^2 culture dishes. Cells were washed once with phosphate-buffered saline (Gibco Cat# 14040-133). Cells were then incubated in phosphate-buffered saline without calcium and without magnesium, supplemented with 2 mM EDTA. Cells were incubated for 10 minutes at room temperature and the cells were collected by repetitive pipeting. Cells were formed into pellets and then frozen at −80° C. until needed. Frozen pellets were homogenized with a polytron at full speed for 12 seconds in a homogenization buffer (20 mM Tris HCl, 5 mM EDTA, pH 7.4). Homogenates were centrifuged for 5 minutes at 4° C. at 200 g. Supernatants were transferred to corex tubes and centrifuged for 25 minutes at 28,000 g. Pellets were re-suspended in Binding (20 mM HEPES, 10 mM NaCl, 0.22 mM KH2PO4, 1.3 mM CaCl2, 0.8 mM MgSO4, pH 7.4). Membranes were kept on ice until use.
A competition binding assay, known to those skilled in the art, was used in which compounds of formula A compete with ^125I-PYY for binding to cell membranes. In simple terms, the less ^125I-PYY bound to the membranes implies that a compound is a good inhibitor (competitor). Bound ^125I-PYY is determined by centrifugation of membranes, aspirating supernatant, washing away residual ^125I-PYY and subsequently counting the bound sample in a gcounter.
Compounds to be tested were prepared as 10× stocks in binding buffer and added first to assay tubes (RIA vials, Sarstedt). Twenty (20) μL of each 10× compound stock is pipeted into vials and 80 μL of ^125I-PYY (NEN catalog number NEX240), which has been diluted to a concentration of 200 pM in 0.25% BSA in binding buffer, is added to the compound tubes (final concentration of ^125I-PYY is 80 pM). To each tube is added 100 μL of membranes and the mixture is agitated by pipeting 2 times. Samples are incubated for 1 hr at room temperature. Aluminum cast plates (Sarstedt) containing the vials are then centrifuged 10 minutes at 3200 rpm in a Sorvall RT6000. Supernatant is then aspirated. To each vial 400 μL PBS is added and this is then aspirated again. Vials are then put in carrier polypropylene 12×75 tube and counted in gamma counter (Packard). Non-specific binding is determined in the presence of 300 nM NPY. Percent inhibition of ^125I-PYY binding is calculated by subtracting non-specific binding from the test samples (compound (I)), taking these counts and dividing by total binding, and multiplying by 100. Inhibitory concentration values (IC50) of compounds that show appreciable inhibition of ^125I-PYY binding are calculated by obtaining percent inhibition of ^125I-PYY binding values at different concentrations of the test compound, and using a graphing program such as GraphPad Prism (San Diego, Calif.) to calculate the concentration of test compound that inhibits fifty-percent of ^125I-PYY binding (Table 4).

Food-Deprived Rats = experiment: Rodent feeding model: measurement of food intake in food-deprived rats; type: in vivo, Male Long-Evans rats; conditions: 10 mg/kg i.p.
From the text: Measurement of Food Intake in Food-Deprived Rats
Male Long-Evans rats (180-200 grams) are housed individually and are maintained on once-a-day feeding schedule (i.e., 10 a.m. until 4 p.m.) for five days following quarantine to allow the animals to acclimate to feeding on powdered chow (#5002 PMI Certified Rodent Meal) during the allotted time. The chow is made available in a open jar, anchored in the cage by a wire, with a metal follower covering the food to minimize spillage. Water is available ad-libitum.
Animals are fasted for 18 hours prior to testing. At the end of the fasting period, animal are administered either compounds of the invention or vehicle. Vehicle and test compounds are administered either orally (5 mL/kg) 60 minutes prior to the experiment, or 30 minutes prior when given subcutaneously (1 mL/kg) or intraperitoneally (1 mL/kg). Compounds of the invention are administered orally as a suspension in aqueous 0.5% methylcellulose-0.4% Tween 80, or intraperitoneally as a solution or suspension in PEG 200; compound concentrations typically range from 1 mg/kg to 100 mg/kg, preferably from 10-30 mg/kg. Food intake is measured at 2, 4, and 6 hours after administration by weighing the special jar containing the food before the experiment and at the specified times. Upon completion of the experiment, all animals are given a one-week washout period before retesting.
Percent reduction of food consumption is calculated subtracting the grams of food consumed by the treated group from the grams of food consumed by the control group divided by the grams of food consumed by the control group, multiplied by 100. A negative value indicates a reduction in food consumption and a positive value indicates an increase in food consumption. [formula]

Row | SMILES | inhibition at 0.3 µM [1] [%] | inhibition at 3 µM [1] [%] | further results
1 | COc1ccc2c(c1)CC[C@@H]1N=C(NC(=O)[C@H]3CC[C@H](CNS(=O)(=O)c4ccccc4)CC3)C[C@H]21 (relative stereo) [Compound 7, trans-4-[[(Phenylsulfonyl)amino]methyl]-N-(cis-3a,4,5,9b-tetrahydro-7-methoxy-1H-benz[e]indol-2-yl)cyclohexanecarboxamide] |  |  | % Inh @ 300 nM ([1]; 0.3 µM): 82%; % Inh @ 3 uM ([1]; 3 µM): 98%
2 | COc1ccc2c(c1)CC[C@@H]1N=C(NC[C@H]3CC[C@H](CNS(=O)(=O)c4ccccc4)CC3)C[C@H]21 (relative stereo) [Compound 8, N-[[trans-4-[[(cis-3a,4,5,9b-tetrahydro-7-methoxy-1H-benz[e]indol-2-yl)amino]methyl]cyclohexyl]methyl]benzenesulfonamide] | 85 | 98 | Food Consumption (avg. grams) 0-2 h (Food-Deprived Rats; 0-2 h, 18 h fasted rats): 4.38 g; Food Consumption 0-2 h (% chg.) (Food-Deprived Rats; 0-2 h, change vs vehicle, negative = reduction): (−52%); Food Consumption (avg. grams) 0-4 h (Food-Deprived Rats; 0-4 h, 18 h fasted rats): 7.88 g; Food Consumption 0-4 h (% chg.) (Food-Deprived Rats; 0-4 h, change vs vehicle, negative = reduction): (−38%); Food Consumption (avg. grams) 0-6 h (Food-Deprived Rats; 0-6 h, 18 h fasted rats): 12.00 g; Food Consumption 0-6 h (% chg.) (Food-Deprived Rats; 0-6 h, change vs vehicle, negative = reduction): (−43%); Food Consumption (avg. grams) 2-6 h (Food-Deprived Rats; 2-6 h, 18 h fasted rats): 7.63 g; Food Consumption 2-6 h (% chg.) (Food-Deprived Rats; 2-6 h, change vs vehicle, negative = reduction): (−37%)
3 | O=C(NC1=N[C@H]2CCc3cc(O)ccc3[C@H]2C1)[C@H]1CC[C@H](CNS(=O)(=O)c2ccccc2)CC1 (relative stereo) [Compound 9, trans-4-[[(Phenylsulfonyl)amino]methyl]-N-(cis-3a,4,5,9b-tetrahydro-7-hydroxy-1H-benz[e]indol-2-yl)cyclohexanecarboxamide] | 97 | 97 | 
4 | O=C(NC1=N[C@H]2CCc3ccccc3[C@H]2C1)[C@H]1CC[C@H](CNS(=O)(=O)c2ccccc2)CC1 (relative stereo) [Compound 13, trans-4-[[(Phenylsulfonyl)amino]methyl]-N-(cis-3a,4,5,9b-tetrahydro-1H-benz[e]indol-2-yl)cyclohexanecarboxamide] | 80 | 100 | 
5 | O=S(=O)(NC[C@H]1CC[C@H](CNC2=N[C@H]3CCc4cc(F)ccc4[C@H]3C2)CC1)c1ccccc1 (relative stereo) [Compound 16, N-[[trans-4-[[(cis-3a,4,5,9b-tetrahydro-7-fluoro-1H-bnz[ ]indol-2-yl)amino]methyl]cyclohexyl]methyl]benzenesulfonamide] |  |  | % Inh @ 300 nM [1]: 76%; % Inh @ 3 uM [1]: 100%
6 | O=C(CN1CCC(n2c(=O)[nH]c3ccccc32)CC1)NC1=N[C@@H]2CCc3ccccc3[C@@H]2C1 [Compound 11] | 48 | 85 | 
7 | COc1ccc2c(c1)CCC1N=C(NCCN3CCC(n4c(=O)[nH]c5ccccc54)CC3)CC21 (stereo not drawn) [Compound 12] |  |  | % Inh @ 300 nM [1]: 9%; % Inh @ 3 uM [1]: 53%

Continued, in another order:

Row | inhibition at 0.3 µM [1] [%] | inhibition at 3 µM [1] [%] | SMILES | further results
8 | 89 | 93 | O=S(=O)(NC[C@H]1CC[C@H](CNC2=N[C@H]3CCc4ccccc4[C@H]3C2)CC1)c1ccccc1 (relative stereo) [Compound 14, N-[[trans-4-[[(cis-3a,4,5,9b-tetrahydro-1 H-benz[e]indol-2-yl)amino]methyl]cyclohexyl]methyl]benzenesulfonamide] | 
9 | 89 | 100 | O=C(NC1=N[C@H]2CCc3cc(F)ccc3[C@H]2C1)[C@H]1CC[C@H](CNS(=O)(=O)c2ccccc2)CC1 (relative stereo) [Compound 15, trans-4-[[(Phenylsulfonyl)amino]methyl]-N-(cis-3a,4,5,9b-tetrahydro-7-fluoro-1H-benz[e]indol-2-yl)cyclohexanecarboxamide] | 
10 | 86 | 107 | O=C(NC1=N[C@H]2CCc3cc(Cl)ccc3[C@H]2C1)[C@H]1CC[C@H](CNS(=O)(=O)c2ccccc2)CC1 (relative stereo) [Compound 17, trans-4-[[(Phenylsulfonyl)amino]methyl]-N-(cis-3a,4,5,9b-tetrahydro-7chloro-1H-benz[e]indol-2-yl)cyclohexanecarboxamide] | 
11 | 90 | 109 | O=S(=O)(NC[C@H]1CC[C@H](CNC2=N[C@H]3CCc4cc(Cl)ccc4[C@H]3C2)CC1)c1ccccc1 (relative stereo) [Compound 18, N-[[trans-4-[[(cis-3a,4,5,9b-tetrahydro-7-chloro-1H-benz[e]indol-2-yl)amino]methyl]cyclohexyl]methyl]benzenesulfonamide] | 
12 | 80 | 99 | COc1ccc2c(c1)CC[C@@H]1N=C(NC(=O)[C@H]3CC[C@H](CNS(=O)(=O)c4ccccc4)CC3)C[C@H]21 (relative stereo) [Compound 19, trans-4-[[(Phenylsulfonyl)amino]methyl]-N-(cis-3a,4,5,9b-tetrahydro-7-methoxy-1H-benz[e]indol-2-yl)cyclohexanecarboxamide] | 
13 | 0 | 50 | COc1ccc2c(c1)CCC1NC(N)(C(=O)CN3CCC(n4c(=O)[nH]c5ccccc54)CC3)CC21 (stereo not drawn) [Compound 20, 2-[[4-(2,3-Dihydro-2-oxo-1H-benzimidazol-1-yl)-1-piperidinyl]acetyl]-[3a,4,5,9b-tetrahydro-7-methoxy-1H-benzo[e]indol-2-yl]-amine] | 
14 | 20 | 78 | NC1(C(=O)CN2CCC(n3c(=O)[nH]c4ccccc43)CC2)CC2c3ccc(O)cc3CCC2N1 (stereo not drawn) [Compound 21, 2-[[4-(2,3-Dihydro-2-oxo-1H-benzimidazol-1-yl)-1-piperidinyl]acetyl]-[3a,4,5,9b-tetrahydro-7-hydroxy-1H-benzo[e]indol-2-yl]-amine] | 
